Data from publication PMC9736874, “Development of Hydroxamate Derivatives Containing a Pyrazoline Moiety as APN Inhibitors to Overcome Angiogenesis” (Molecules, 2022).

Legend:
HepG2 cells = experiment: Anti-proliferative assay (MTT), HepG2; assay type: cell-based; conditions: Homo sapiens, 48 h, triplicate, mean ± SD
Description: (§1) The MTT method was used for the determination of anti-proliferative activities of selected compounds against tumor cells. Human histiocytic lymphoma cells U937, human chronic myeloid leukemia cells K562, liver carcinoma alexander cells PLC/PRF/5, human prostate cancer cells PC-3, human ovarian clear cell carcinoma cells ES-2, human hepatocellular carcinoma cells HepG2 were selected as tested tumor cell lines. Firstly, the cells were cultured in RPMI 1640 medium with 10% FBS at 37 °C in 5% CO2 humidified incubator. Cells (100 μL) in logarithmic phase were inoculated in 96-well plates and allowed to grow for 4 h. Subsequently, inhibitors (100 μL) at the tested concentration were added, followed by incubation for 48 h. Then, to the mixture was added MTT solution (20 μL, 5 mg/mL) and further incubated for 4 h. The plates were centrifuged at 800 rpm for 3 min. The supernatant was poured off and the formed formazan was dissolved in DMSO (200 μL). Finally, the mixture was shaken for 15 min and the absorbance values of the formazan solution were measured at 570 nm with a plate reader (Varioskan, Thermo, Waltham, MA, USA). All the tumor cells were owned by our laboratory.

ES-2 cells = experiment: Anti-proliferative assay (MTT), ES-2; assay type: cell-based; conditions: Homo sapiens, 48 h, triplicate, mean ± SD
Description: as §1

PC-3 cells = experiment: Anti-proliferative assay (MTT), PC-3; assay type: cell-based; conditions: Homo sapiens, 48 h, triplicate, mean ± SD
Description: as §1

K562 cells = experiment: Anti-proliferative assay (MTT), K562; assay type: cell-based; conditions: Homo sapiens, 48 h, triplicate, mean ± SD
Description: as §1

PLC/PRF/5 cells = experiment: Anti-proliferative assay (MTT), PLC/PRF/5; assay type: cell-based; conditions: Homo sapiens, 48 h, triplicate, mean ± SD
Description: as §1

U937 cells = experiment: Anti-proliferative assay (MTT), U937; assay type: cell-based; conditions: Homo sapiens, U-937, 48 h, triplicate, mean ± SD
Description: as §1

rat thoracic aorta rings = experiment: Rat aortic ring assay (ex vivo anti-angiogenesis); assay type: cell-based, Sprague Dawley rats
Description: The thoracic aortas were separated from 8- to 10-week-old male Sprague Dawley rats and cut into rings with a 1-mm-long cross-section after removal of the connective tissues around the aortas. The fresh aortic ring was added into the 96-well plates pre-coated with matrigel (50 μL, BD bioscience), and covered with another 50 μL of matrigel. After incubation at 37 °C in 5% CO2 for 0.5 h, the tested compounds (100 μL) in M199 culture medium with 10% FBS was added to the mixture and incubated at 37 °C in 5% CO2 for 9 d. For the treatment group, the M199 culture medium with 10% FBS and inhibitors was changed every three days. For the control group, the M199 culture medium with 10% FBS and 0.5% DMSO was changed every three days. The formed micro-vessels were photographed by inverted microscope at 100× magnification. Experiments were repeated three times. All experiments involving laboratory animals were performed with the approval of the Laboratory Animal Welfare Review Committee of Shandong University of Traditional Chinese Medicine.

[1] = target: T1, porcine kidney aminopeptidase N (APN) (Sus scrofa, UniProt P15145); experiment: Enzymatic inhibition assay against APN in vitro (L-Leu-p-nitroanilide substrate); assay type: biochemical; conditions: for IC50: soluble APN from porcine kidney microsomal, 37 °C, 30 min, triplicate, mean ± SD
T1 construct: purchased Enzo Life Sciences; host or cells: porcine kidney microsomes (tissue-derived)
T1 sequence (P15145 1-963): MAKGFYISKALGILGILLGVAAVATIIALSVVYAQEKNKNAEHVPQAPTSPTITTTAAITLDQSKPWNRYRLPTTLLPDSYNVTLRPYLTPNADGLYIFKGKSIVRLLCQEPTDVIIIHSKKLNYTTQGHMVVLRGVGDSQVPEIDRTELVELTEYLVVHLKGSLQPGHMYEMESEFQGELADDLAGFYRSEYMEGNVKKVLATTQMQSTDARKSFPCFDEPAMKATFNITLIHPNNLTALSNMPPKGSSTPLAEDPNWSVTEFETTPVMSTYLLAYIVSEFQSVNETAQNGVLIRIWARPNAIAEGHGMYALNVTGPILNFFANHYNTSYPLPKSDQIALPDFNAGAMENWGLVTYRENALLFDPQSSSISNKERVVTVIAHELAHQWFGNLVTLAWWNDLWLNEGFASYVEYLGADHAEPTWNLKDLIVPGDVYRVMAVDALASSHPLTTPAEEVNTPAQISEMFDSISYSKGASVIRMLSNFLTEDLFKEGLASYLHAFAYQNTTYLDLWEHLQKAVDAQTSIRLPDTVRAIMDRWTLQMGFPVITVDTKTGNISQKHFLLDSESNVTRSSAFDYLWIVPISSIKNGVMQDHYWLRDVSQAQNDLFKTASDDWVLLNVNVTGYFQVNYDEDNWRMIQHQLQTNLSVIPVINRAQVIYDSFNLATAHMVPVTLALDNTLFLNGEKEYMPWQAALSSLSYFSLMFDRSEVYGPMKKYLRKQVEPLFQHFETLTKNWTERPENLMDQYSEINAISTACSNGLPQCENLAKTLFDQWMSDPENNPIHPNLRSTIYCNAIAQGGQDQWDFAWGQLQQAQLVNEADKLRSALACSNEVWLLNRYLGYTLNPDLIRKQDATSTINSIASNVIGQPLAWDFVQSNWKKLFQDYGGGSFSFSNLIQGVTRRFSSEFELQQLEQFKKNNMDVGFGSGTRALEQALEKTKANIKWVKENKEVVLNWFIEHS
Description: The enzymatic inhibitory activities of target compounds were evaluated using L-Leu-p-nitroanilide (Sigma-Aldrich, St. Louis, MO, USA) as substrate and soluble APN from porcine kidney microsomal (Enzo Life Sciences, Farmingdale, NY, USA) as enzyme. Firstly, the substrate was dissolved in DMSO to a concentration of 16 mmol/L and the enzyme was dissolved in buffer solution of 50 mM PBS (pH = 7.2) for a concentration of 0.15 IU/L. Subsequently, inhibitors (40 μL) and PBS (145 μL) were added into the 96-well plates, followed by the addition of substrate (5 μL) and enzyme (10 μL). After incubation at 37 °C for 30 min, the absorbance values were measured at 405 nm with a plate reader (Varioskan, Thermo Fisher Scientific, Waltham, MA, USA).

Structure (SMILES)	melting point	IC50 [1]	also measured
CC(C)C[C@H](NC(=O)[C@@H](O)[C@H](N)Cc1ccccc1)C(=O)O [Bestatin, bestatin, reference compound]			IC50 (HepG2 cells): > 500 µM; IC50 (ES-2 cells): > 500 µM; IC50 (PC-3 cells): > 500 µM; IC50 (K562 cells): > 500 µM; IC50 (PLC/PRF/5 cells): > 500 µM; IC50 (U937 cells): > 500 µM
CC(=O)N1N=C(c2c(Cl)cccc2Cl)CC1c1ccccc1OCC(=O)NO (centres unmarked) [Compound 14o, 2-(2-(1-Acetyl-3-(2,6-dichlorophenyl)-4,5-dihydro-1H-pyrazol-5-yl)phenoxy)-N-hydroxyacetamide]	174 to 176 °C	0.0062 ± 0.0004 µM	IC50 (HepG2 cells): 84.2 ± 7.6 µM; IC50 (ES-2 cells): 115 ± 9.7 µM; IC50 (PC-3 cells): 45.8 ± 4.1 µM; IC50 (K562 cells): 10.4 ± 1.2 µM; IC50 (PLC/PRF/5 cells): 88.5 ± 7.4 µM; growth of micro-vessels derived from the thoracic aorta rings (rat thoracic aorta rings; 1 μM and 50 μM, 9 d incubation): could prevent the growth of micro-vessels derived from the thoracic aorta rings in a dose–dependent manner; micro-vessels at 50 μM compared with the group treated with 1 μM (rat thoracic aorta rings; 50 μM, 9 d incubation): obviously reduced micro-vessels; anti-angiogenic activity compared with bestatin (rat thoracic aorta rings; same concentration of 50 μM): much better than that of bestatin; IC50 (U937 cells): 38.3 ± 3.6 µM; fold more potent against APN than lead compound 13c ([1]; ratio of APN IC50 values): over 9 fold; fold more potent against APN than positive control bestatin ([1]; ratio of APN IC50 values): over 1419 fold
CC(=O)N1N=C(c2cccc3ccccc23)CC1c1ccccc1OCC(=O)NO (centres unmarked) [Compound 14p, 2-(2-(1-Acetyl-3-(naphthalen-1-yl)-4,5-dihydro-1H-pyrazol-5-yl)phenoxy)-N-hydroxy acetamide]	198 to 200 °C	0.31 ± 0.02 µM	
CC(=O)N1N=C(c2ccccc2I)CC1c1cccc(Br)c1OCC(=O)NO (centres unmarked) [Compound 14q, 2-(2-(1-Acetyl-3-(2-iodophenyl)-4,5-dihydro-1H-pyrazol-5-yl)-6-bromophenoxy)-N-hydroxyacetamide]	96 to 98 °C	3.5 ± 0.2 µM	
NC(=O)N1N=C(c2ccccc2I)CC1c1cccc(Br)c1OCC(=O)NO (centres unmarked) [Compound 14r, 5-(3-Bromo-2-(2-(hydroxyamino)-2-oxoethoxy)phenyl)-3-(2-iodophenyl)-4,5-dihydro-1H-pyrazole-1-carboxamide]	140 to 142 °C	3.4 ± 0.3 µM	
CC(=O)N1N=C(c2ccccc2I)CC1c1ccc(Br)cc1OCC(=O)NO (centres unmarked) [Compound 14s, 2-(2-(1-Acetyl-3-(2-iodophenyl)-4,5-dihydro-1H-pyrazol-5-yl)-5-bromophenoxy)-N-hydroxyacetamide]	168 to 170 °C	2.1 ± 0.2 µM	
NC(=O)N1N=C(c2ccccc2I)CC1c1ccc(Br)cc1OCC(=O)NO (centres unmarked) [Compound 14t, 5-(4-Bromo-2-(2-(hydroxyamino)-2-oxoethoxy)phenyl)-3-(2-iodophenyl)-4,5-dihydro-1H-pyrazole-1-carboxamide]	196 to 198 °C	1.6 ± 0.1 µM	
CC(=O)N1N=C(c2ccccc2I)CC1c1cc(Br)ccc1OCC(=O)NO (centres unmarked) [Compound 14u, 2-(2-(1-Acetyl-3-(2-iodophenyl)-4,5-dihydro-1H-pyrazol-5-yl)-4-bromophenoxy)-N-hydroxyacetamide]	106 to 108 °C	0.37 ± 0.02 µM	
NC(=O)N1N=C(c2ccccc2I)CC1c1cc(Br)ccc1OCC(=O)NO (centres unmarked) [Compound 14v, 5-(5-Bromo-2-(2-(hydroxyamino)-2-oxoethoxy)phenyl)-3-(2-iodophenyl)-4,5-dihydro-1H-pyrazole-1-carboxamide]	202 to 204 °C	0.54 ± 0.04 µM	
CC(=O)N1N=C(c2ccccc2I)CC1c1c(Br)cccc1OCC(=O)NO (centres unmarked) [Compound 14w, 2-(2-(1-Acetyl-3-(2-iodophenyl)-4,5-dihydro-1H-pyrazol-5-yl)-3-bromophenoxy)-N-hydroxyacetamide]	152 to 154 °C	0.024 ± 0.001 µM	
NC(=O)N1N=C(c2ccccc2I)CC1c1c(Br)cccc1OCC(=O)NO (centres unmarked) [Compound 14x, 5-(2-Bromo-6-(2-(hydroxyamino)-2-oxoethoxy)phenyl)-3-(2-iodophenyl)-4,5-dihydro-1H-pyrazole-1-carboxamide]	132 to 134 °C	0.09 ± 0.005 µM	
CC(=O)N1N=C(c2ccccc2I)CC1c1c(Cl)cccc1OCC(=O)NO (centres unmarked) [Compound 14y, 2-(2-(1-Acetyl-3-(2-iodophenyl)-4,5-dihydro-1H-pyrazol-5-yl)-3-chlorophenoxy)-N-hydroxyacetamide]	168 to 170 °C	0.023 ± 0.001 µM	
NC(=O)N1N=C(c2ccccc2I)CC1c1c(Cl)cccc1OCC(=O)NO (centres unmarked) [Compound 14z, 5-(2-Chloro-6-(2-(hydroxyamino)-2-oxoethoxy)phenyl)-3-(2-iodophenyl)-4,5-dihydro-1H-pyrazole-1-carboxamide]	190 to 192 °C	0.07 ± 0.003 µM	
